US11439615B2, “Lipoxin and lipoxin analogue mediated neuroprotection and treatments” (University Health Network, priority 2017, dated 2022)

What was measured:
primary RGCs = experiment: Primary RGCs under paraquat oxidative stress, cell and neurite survival; format: cell-based, rat; conditions: 1 μM, 24 hours of 30 μM PQ
Description: FIG. 5D is a graph showing Mitotracker red signal which indicates protection from […] membrane potential with LXB4 treatment (n=3). FIG. 5E is a series of images showing primary RGCs labeled with β3-tubulin extend an extensive network of neurites that disintegrate dramatically after 24 hours of 30 μM PQ. […] (Scale bar indicates 20 μm, *p<0.05, **p<0.01, bars are S.E.M.).
For astrocytes: Primary mature retinal astrocytes (RA) were isolated and cultured as previously described (46). Briefly, eyes were dissected out of adult Wistar rats and placed in ice-cold MEM-H17 media. Isolated retinas were digested by shaking in MEM-H17 containing papain and DNAse, followed by trituration to disperse cell-aggregates. When cultures reached confluence, the cells were placed on a rotating shaker for 6-8 hours to remove microglia and then re-plated. A glial-specific expression profile was confirmed by probing the cultures with a panel of glia microglia and neuronal markers (44). For RGCs: RGCs were purified using magnetic MicroBeads (Miltenyi Biotec, Germany) according to the manufacturer's protocol. Briefly; retinal cell suspensions were prepared from 8-10 day old rats and incubated with CD90.1 microbeads, and then carefully washed with DPBS/BSA buffer. The suspension was centrifuged at 130×g and the supernatant aspirated. Cells were then incubated with biotinylated depletion antibodies against microglia and endothelial cells. The labeled cell suspension was then incubated with magnetic Anti-Biotin MACSiBead™ Particles, and placed in a weak magnetic field. The pre-enriched cell suspension was centrifuged, and resuspended in fresh DPBS/BSA buffer and applied to a MACs MS separation column in the presence of a strong magnetic field to select for CD90.1-bound RGCs. To increase RGC purity, the eluted fraction was enriched over a second column. Purified RGCs were eluted and plated on poly-D-lysine coated dishes. The cells were cultured in Neurobasal-A media (Gibco) supplemented with 2% calf serum, B27, L-glutamine, BDNF, CNTF, forskolin and pen/strep.

[1] = tested on: retinal ganglion cell (RGC); experiment: Mouse chronic glaucoma model (circumlimbal suture ocular hypertension); format: in vivo; conditions: 0.1 μg/μL locally and systemically every other day from week 5, n=10; for loss of RGC (RBPMS flatmount counts): end of 12 weeks; for reduction of RGC function (pSTR) / reduction of retinal nerve fiber layer (RNFL) thickness: week 12
Description: LXA4 and LXB4 treatment were assessed and found to be efficacious in a mouse chronic glaucoma model. Chronic ocular hypertension was induced in weaned male C57BL/6 mice using a monocular circumlimbal suture. From week 5, they were treated with either PBS vehicle, LXA4 or LXB4 (0.1 μg/μL, locally and systemically, every other day) (shaded areas). Retinal function (electroretinogram) and structure (optical coherence tomography) were measured weekly in all groups for 12 weeks. At the end of 12 weeks, animals were euthanized and retinal ganglion cell (RGC) counts were analyzed on retinal flatmounts by RBPMS immunostaining. […] (n=10 per group, bars represent S.E.M.).

[2] = tested on: retinal ganglion cell neurons (RGCs); experiment: Mouse acute retinal insult model (intravitreal kainic acid), RGC survival / GCL apoptosis; format: in vivo; conditions: 2 μl of 10 μM intravitreally one hour prior to retinal KA insult; RBPMS counts
Description: Male C57BLL/6 mice, 4-6 weeks of age, were purchased from Taconic or Jackson labs. All experimental protocols were approved by the UHN and UC Berkeley ACUC in accordance with applicable regulations. Mice were anesthetized by intraperitoneal injection of ketamine/xylazine. Intravitreal injections with 10 mM kainic acid (KA) were performed as previously described (45). Briefly, a 30-gauge needle was inserted tangentially into the vitreous and replaced with a Hamilton syringe to inject a volume of 2 μL, followed by application of ophthalmic antibiotic ointment (BNP, Vetoquinol). In some experiments, 10× concentrated ACM or test compounds were injected intravitreally one hour prior to the KA injection in concentrations as follows: LXA4 and LXB4 at 10 μM, Zileuton at 2 μg/ul, and WRW4 at 15 μM, all dissolved in PBS. Mice were euthanized by CO2 asphyxiation 18 hours post KA treatment and the eyes fixed in 4% paraformaldehyde. In all experiments n refers to the number of animals tested.
To quantify the extent of apoptosis, a well-established method was used to count the number of TUNEL-positive nuclei in the ganglion cell layer (GCL) and expressed it as a fraction of the total GCL nuclei (50-54). TUNEL labeling was performed according to the manufacturer's instructions (DeadEnd; Promega). Briefly, cryostat sections were fixed with 4% PFA for 5 minutes and washed in PBS. Equilibration buffer was added, and rTdT reaction mix was applied to each slide and incubated at 37° C. for 60 min. Following the rTdT reaction, slides were washed in 2×SSC and PBS and finally mounted with glycerol-based medium. For RGC survival, RBPMS-positive cells in the GCL were counted and expressed as a fraction of GCL nuclei. For each eye, at least five central retinal sections were analyzed at the level of the optic nerve stretching to each ora serrata, and the results averaged, as previously described (42).
In order to test the influence of the transplanted cells on inner retinal pathology, RA's were transplanted as above. After 16 days retinas were challenged with an acute metabolic injury by injection of kainic acid (KA). […]
Retinal astrocyte neuroprotection is mediated through secreted factors that include a small molecule component enriched in LXA4 and LXB4. […] This time, survival of RGCs was specifically assessed by probing for the selective marker RBPMS, along with complementary TUNEL staining, and quantified as previously. As expected, extensive RGC loss was detected in KA challenged eyes injected with cell-free control media incubated under the same conditions as ACM (FIG. 2A). […]

SMILES	RGC survival following oxidative stress (primary RGCs)	loss of RGC (RBPMS flatmount counts) [1]	reduction of RGC function (pSTR) [1]	reduction of retinal nerve fiber layer (RNFL) thickness [1]	increase of RGC survival compared to vehicle control [2]	RGC neurite degeneration following PQ challenge (primary RGCs)
CCCCC[C@H](O)/C=C/C=C\C=C\C=C\[C@@H](O)[C@@H](O)CCCC(=O)O [LXA4, 5S,6R,15S-trihydroxy-7E,9E,11Z,13E-eicosatetraenoic acid]	significant rescue	−14.1±1.0%	−24.0±1.3%	−23.8±1.6%	37%	
CCCCC[C@H](O)[C@H](O)/C=C/C=C/C=C\C=C\[C@@H](O)CCCC(=O)O [LXB4, 5S,14R,15S-trihydroxy-6E,8Z,10E,12E-eicosatetraenoic acid]	significant rescue	−12.2±0.9%	−20.9±1.0%	−20.9±1.0%	50%	significantly rescued
